From patent publication US4173481A (priority 1976, dated 1979)

Tests used:
[1] = Melting Time in 0.2 N aqueous sodium hydroxide at 60° C.; settings: 0.2 N NaOH
Description: An emulsion for a green-sensitive layer of a color negative light-sensitivematerial obtained in the same manner as described in Example 1 was divided into four portions, a first portion was used as a control. To the other three portions were added an aqueous solution of Compound 1, 1,3,5-tris(β-vinylsulfonylpropyl)hexahydro-s-triazine (Compound C), bis(vinylsulfonylmethyl) ether (Compound D) in an amount of 1.5 g per 100 g of dry gelatin, respectively. Each emulsion was coated on a subbed polyethylene terephthalate support at a thickness of 5μ and dried.
The strength of the layer was determined using the two methods described below with samples stored at 25° C., 65% RH for 2 days or for 20 days and a sample heat treated at 50° C., 80% RH for 2 days.
A sample strip was immersed in a 0.2 N aqueous solution of sodium hydroxide at 60° C. and the time (min) when the emulsion layer began to melt was measured.

[2] = Strength of gelatin layer surface; settings: 65% RH, 5×10^-5 mol per g of dry gelatin
Description: A sample was immersed in water at 25° C. for 5 minutes. A pin equipped with a steel ball having a radius of 0.2 mm on the point thereof was pressed on the surface of the sample and the pin was moved at a rate of 5 mm per second on the surface of the sample while the load applied to the pin was continuously varied in the range of 0 to 100 g. The load (g) at which a scratch occurred on the surface was measured.
A 5% solution of gelatin was divided into four portions, a first portion was used as a control and to the other three portions were added Compound 1 of the present invention, Compound B and Compound E in an amount of 5×10^-5 mol per g of dry gelatin, respectively. Each gelatin solution was coated on a subbed polyester film support and dried.
After storing the samples obtained under conditions of 25° C., 65% RH, the strength of the gelatin layer surface thereof was determined.

[3] = Photographic properties (fog, relative sensitivity, maximum density of the magenta dye image); settings: 1.5 g per 100 g of dry gelatin, Table 1; for Relative Sensitivity: control = 100; for Maximum Density: magenta dye image
Description: A silver iodobromide emulsion containing 6.0 mol % of silver iodide was optimally ripened using a sulfur-containing sensitizer and a gold sensitizer to prepare a high speed negative emulsion. To the emulsion were added anhydro-5,5'-tetrachloro-1,1'-diethyl-3,3'-di-(3-sulfopropyl)-benzimidazolocarbocyanine hydroxide as a spectral sensitizer, 4-hydroxy-6-methyl-1,3,3a,7-tetrazaindene as a stabilizer, and 1-(2,4,6-trichlorophenyl)-3-[3-(2,4-di-tert-amylphenoxyacetamide)benzamido]-5-pyrazolone (which was dissolved in tricresyl phosphate and ethyl acetate and dispersed in gelatin with sodium dodecylbenzenesulfonate) as a magenta color forming coupler to prepare an emulsion for a green-sensitivelayer of a color negative light-sensitive material. The emulsion thus-obtained was divided into four portions and a first portion was used as control. To the other three portions were added an aqueous solution of Compound 1 of the present invention, dimethylol urea (Compound A) and mucochloric acid (Compound B), respectively, in an amount of 1.5 g per 100 g of dry gelatin. Each emulsion was coated on a subbed cellulose triacetate support in a coated coupler amount of 1.5×10^-3 mol/m^2 and dried.
These samples were exposed to green light using an NSG II type sensitometer and processed according to the color processing procedure as described in Example 1 of Japanese patent application (OPI) No. 51940/1976 as follows.
The density of the magenta dye image thus-obtained was measured and fog, relative sensitivity and maximum density were determined.

Molecule	Melting Time ([1]; 2 Days Heated, 50° C., 80% RH)	Melting Time ([1]; 2 Days at 25° C., 65% RH)	Melting Time ([1]; 20 Days at 25° C., 65% RH)	Strength of Layer Surface ([2]; 2 Days at 25° C.)	Strength of Layer Surface ([2]; 7 Days at 25° C.)	Strength of Layer Surface ([2]; 14 Days at 25° C.)	Strength of Layer Surface ([2]; 21 Days at 25° C.)	Fog [3]	Relative Sensitivity [3]	Maximum Density [3]
1,3,5-tris(β-vinylsulfonylpropyl)hexahydro-s-triazine [Compound C]	3 min	1 min	2.5 min							
C=CS(=O)(=O)CCS(=O)(=O)C=C [Compound E, 1,2-bis(vinylsulfonyl)ethane]				18 g	25 g	32 g	36 g			
O=C/C(Cl)=C(/Cl)C(=O)O [Compound B, mucochloric acid]				21 g	36 g	45 g	52 g	0.14	85	2.70
C=CS(=O)(=O)CC(O)CS(=O)(=O)C=C [Compound 1, 1,3-bis(Vinylsulfonyl)-2-propanol]	30 min	13.5 min	27 min	48 g	56 g	58 g	60 g	0.10	92	2.80
